Data published in PMC8233418, “Structure and transport mechanism of P5B-ATPases” (Nature Communications, 2021).

Assays:
Ypk9 [1] = molecular target: T1, Ypk9 (Thermochaetoides thermophila, UniProt G0S7G9); test: ATPase activity, malachite green phosphate release; format: biochemical; settings: 5 mM MgCl2, pH 7.0, 37 °C
T1 construct: gene CTHT_0028100; full length, introns removed; N- or C-terminal TEV-G4S-GFP-His10 fusion, made in S. cerevisiae PAP1500; purified in DDM/CHS (ATPase assay) or reconstituted in nanodiscs (cryo-EM)
T1 sequence (G0S7G9 entry or part of it): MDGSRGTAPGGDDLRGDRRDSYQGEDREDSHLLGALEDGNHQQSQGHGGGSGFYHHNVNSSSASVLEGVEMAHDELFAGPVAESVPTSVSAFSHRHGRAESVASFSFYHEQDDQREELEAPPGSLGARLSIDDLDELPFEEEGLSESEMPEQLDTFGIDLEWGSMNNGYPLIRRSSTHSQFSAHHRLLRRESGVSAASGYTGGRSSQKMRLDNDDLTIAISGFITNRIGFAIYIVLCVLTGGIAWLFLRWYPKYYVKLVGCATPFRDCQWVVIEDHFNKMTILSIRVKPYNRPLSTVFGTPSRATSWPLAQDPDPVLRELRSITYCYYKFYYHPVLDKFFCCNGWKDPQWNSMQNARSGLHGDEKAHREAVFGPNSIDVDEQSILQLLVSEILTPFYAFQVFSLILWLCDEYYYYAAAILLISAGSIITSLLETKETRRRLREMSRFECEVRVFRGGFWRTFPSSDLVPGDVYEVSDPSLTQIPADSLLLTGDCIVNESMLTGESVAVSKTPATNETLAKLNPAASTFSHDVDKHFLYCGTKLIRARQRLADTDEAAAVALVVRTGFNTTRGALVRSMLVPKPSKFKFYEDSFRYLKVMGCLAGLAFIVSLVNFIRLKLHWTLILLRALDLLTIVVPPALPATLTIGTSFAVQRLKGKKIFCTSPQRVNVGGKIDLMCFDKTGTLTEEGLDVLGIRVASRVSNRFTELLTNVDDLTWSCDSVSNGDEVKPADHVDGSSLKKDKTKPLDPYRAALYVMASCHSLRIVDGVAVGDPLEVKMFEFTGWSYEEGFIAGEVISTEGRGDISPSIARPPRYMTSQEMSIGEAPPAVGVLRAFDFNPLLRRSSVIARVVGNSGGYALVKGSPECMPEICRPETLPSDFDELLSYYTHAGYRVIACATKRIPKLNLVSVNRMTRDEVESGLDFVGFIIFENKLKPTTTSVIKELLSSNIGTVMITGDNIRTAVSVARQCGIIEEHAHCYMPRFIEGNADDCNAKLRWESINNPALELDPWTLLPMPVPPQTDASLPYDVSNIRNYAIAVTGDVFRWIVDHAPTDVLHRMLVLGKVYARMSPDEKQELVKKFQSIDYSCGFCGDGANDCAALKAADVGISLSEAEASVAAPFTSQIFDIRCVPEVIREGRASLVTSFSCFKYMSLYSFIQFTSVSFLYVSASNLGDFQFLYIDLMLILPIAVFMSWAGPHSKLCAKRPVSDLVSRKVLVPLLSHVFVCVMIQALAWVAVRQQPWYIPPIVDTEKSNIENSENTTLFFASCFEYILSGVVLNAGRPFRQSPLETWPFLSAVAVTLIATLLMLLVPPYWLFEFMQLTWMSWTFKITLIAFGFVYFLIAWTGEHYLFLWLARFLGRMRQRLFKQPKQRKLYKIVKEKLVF

Ypk9 [2] = molecular target: T1, Ypk9; test: ATPase activity, malachite green phosphate release; format: biochemical; settings: 6 mM SPM, 1 mM ATP, 5 mM MgCl2, 100 mM KCl, pH 7.0, 37 °C, DDM/CHS
Ypk9 [3] = molecular target: T1, Ypk9; test: cryo-EM structure (E2.Pi-SPM […] Å; E2.Pi-AlF/SPM […] Å; E2P* […] Å); format: binding; settings: 1 mM SPM with 1 mM MgCl2, AlF or BeF3−; nanodiscs; luminal cleft between TM2, 4 and 6

For `[F][Be-]([F])[F]` [BeF3−], the “inhibition at 1 mM” value (Ypk9 [1]; 1 mM BeF3−, 1 mM ATP, phosphate analogue) was “inhibited by the inhibitors BeF3^− and NaVO4^−”.

With `[O]=[V]([OH])([OH])[OH]` [NaVO4−] the “inhibition at 1 mM” value (Ypk9 [1]; 1 mM NaVO4, 1 mM ATP) was “inhibited by the inhibitors BeF3^− and NaVO4^−”.

For `NCCCNCCCCNCCCN` [spermine], the ATPase stimulation (Ypk9 [2]) was “ATPase activity of purified Ypk9 is stimulated by the polyamine spermine (SPM)” and the “cryo-EM structure (E2.Pi-SPM 3.5 Å; E2.Pi-AlF/SPM 3.4 Å; E2P* 3.7 Å)” value (Ypk9 [3]) was “The cleft harbors an additional, elongated density compatible with the presence of SPM”.
